Reference: US9447086B2, “6-amino acid heteroaryldihydropyrimidines for the treatment and prophylaxis of hepatitis B virus infection” (priority 2012, dated 2016)
Values after ≈ are worked out from the molar mass of the structure shown. Read-outs that look alike come from different tables or passages of the source.

Key:
HBV [1] = experiment: Anti-HBV activity in vitro in HepG2.2.15 cells (extracellular HBV DNA by qPCR); assay type: cell-based, Hepatitis B virus; conditions: Hepatitis B virus
Excerpt: (§1) HepG2.2.15 and HepDE19 are stably-transfected cell lines containing the HBV genome. Both cell lines are derived from the hepatoblastoma cell line Hep G2 (American Type Culture Collection, ATCC® HB-8065™) by the published procedures described in references: MA Selles et al. Proc. Natl. Acad. Sci. USA 1987, 84, 1005-1009 and H Guo et al. Journal of Virology 2007, 81, 12472-12484, respectively. Both cell lines were maintained in Dulbecco's modified Eagle's medium (DMEM)-F12 medium supplemented with 10% fetal bovine serum, 100 U/mL penicillin, 100 μg/mL streptomycin, and 0.5 mg/mL of G418.
While HepG2.2.15 cells constitutively support HBV replication and production of virus particles, HepDE19 cells are inducible by tetracycline. Addition of 1 μg/mL tetracycline in culture medium suppresses HBV replication in HepDE19 cells, whereas switching to tetracycline-free medium resumes this process.
HepG2.2.15 cells were seeded into 96-well plates (3×10^4 cells in 100 μl media per well) and incubated overnight at 37° C. The test compounds were serially half-log diluted in DMSO, then diluted 100 times in culture media. 100 μL diluted compounds were added into the plates to reach 0.5% final concentration of DMSO in every well. Five days after compound treatment, culture supernatant was collected for further analysis.
For quantitative PCR detection of extracellular HBV DNA, 100 μL culture supernatant was collected and processed in MagNA Pure 96 Nucleic Acid Purification System (Roche Applied Science) for viral DNA extraction. The extracted samples were subjected to HBV DNA quantification by qPCR.
The compounds of the present invention were tested for their capacity to inhibit a HBV activity and activation as described herein.

[2] = Cytotoxicity (CC50) in HepDE19 cells, CCK-8 cell viability; assay type: cell-based; conditions: human, HepDE19 cells; read-out: CC50
Excerpt: as §1
Five days after treatment, cell viability was measured by addition of 20 μL of CCK-8 reagent. Two hours after incubation at 37° C., the absorbance at wavelengths of 450 nm and 630 nm (OD450 and OD630) was recorded by a plate reader.

[3] = Lyophilisation solubility assay (Lysa); assay type: physicochemical; conditions: phosphate buffer, pH 6.5, aqueous buffer, thermodynamic from solid
How it was run: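 Duplicate samples from 10 mM DMSO stocks are dried, redissolved in 0.05 M phosphate buffer pH 6.5, stirred 1 h, shaken 2 h and left overnight. Filtrate and its 1/10 dilution are quantified by direct UV or HPLC-UV, giving solubility in μg/mL.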

HBV [4] = experiment: Selectivity index (CC50 value/EC50 value); assay type: cell-based, Hepatitis B virus
Excerpt: Based on FDA guidance, in order to support clinical testing in humans, the assessment of acceptable risk-benefit has to be achieved by providing clear evidence of in vitro antiviral activity (EC50) and cytotoxicity (CC50). It is important to establish that an investigational product has antiviral activity at concentrations that can be achieved in vivo without inducing toxic effects to cells. Furthermore, in a cell culture model, apparent antiviral activity of an investigational product can be the result of host cell death after exposure to the product. The relative effectiveness of the compound in inhibiting viral replication compared to inducing cell death is defined as the selectivity index (CC50 value/EC50 value). It is desirable to have a high selectivity index giving maximum antiviral activity with minimal cell toxicity.
The relative effectiveness of the compound in inhibiting viral replication compared to inducing cell death is defined as the selectivity index (CC50 value/EC50 value). It is desirable to have a high selectivity index giving maximum antiviral activity with minimal cell toxicity.

[5] = Metabolic stability study in human microsome; assay type: in vitro ADME
How it was run: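 Human liver microsomes (0.5 mg/mL) with 1 μM compound in 100 mM phosphate pH 7.4 at 37 °C, started with 1 mM NADPH or an NADPH-regenerating system. Samples taken at 0, 3, 6, 9, 15 and 30 min, quenched in methanol. Parent remaining measured by LC-MS/MS; no-cofactor controls included.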

[6] = HepG2.2.15 cells, in-house data, read-out: EC50

SMILES	EC50 (HBV [1]; [6]) [nM]	CC50 at 5 days [2] [nM]	solubility thermodynamic [3] [µg/mL]	Selectivity index (CC50/EC50) (HBV [4])	Human Hepatic Clearance [5] [mL/min/kg]	EC50 (HBV [1]; HepG2.2.15) [nM]
CCOC(=O)C1=C(CN2CCOC[C@H]2C(=O)O)NC(c2nccs2)=N[C@H]1c1cc(F)c(F)c(F)c1 [Example 43, (S)-4-[(S)-5-Ethoxycarbonyl-2-thiazol-2-yl-6-(3,4,5-trifluoro-phenyl)-3,6-dihydro-pyrimidin-4-ylmethyl]-morpholine-3-carboxylic acid]	18	> 100000	> 606	>5556	1.2	–
COC(=O)C1=C(CN2CC(F)(F)CC[C@H]2C(=O)O)NC(c2nccs2)=N[C@H]1c1cccc(F)c1Cl [Example 109, (R)-6-((S)-2-Carboxy-5,5-difluoro-piperidin-1-ylmethyl)-4-(2-chloro-3-fluoro-phenyl)-2-thiazol-2-yl-1,4-dihydro-pyrimidine-5-carboxylic acid methyl ester]	4.4	55000	> 657	12500	1.25	–
COC(=O)C1=C(CN2CCOC[C@H]2C(=O)O)NC(c2nccs2)=N[C@H]1c1ccc(Cl)c(F)c1 [Example 77, (S)-4-[(S)-6-(4-Chloro-3-fluoro-phenyl)-5-methoxycarbonyl-2-thiazol-2-yl-3,6-dihydro-pyrimidin-4-ylmethyl]-morpholine-3-carboxylic acid]	–	> 100000	> 631	14286	1.43	7
CCOC(=O)C1=C(CN2CCOC[C@H]2C(=O)O)NC(c2nccs2)=N[C@H]1c1ccc(Br)c(F)c1 [Example 52, (S)-4-[(S)-6-(4-Bromo-3-fluoro-phenyl)-5-ethoxycarbonyl-2-thiazol-2-yl-3,6-dihydro-pyrimidin-4-ylmethyl]-morpholine-3-carboxylic acid]	3	14000	> 665	4693	4.03	–
COC(=O)C1=C(CN2CC(F)(F)C[C@H]2C(=O)O)NC(c2nccs2)=N[C@H]1c1ccc(F)c(F)c1Cl [Example 74, (R)-6-((S)-2-Carboxy-4,4-difluoro-pyrrolidin-1-ylmethyl)-4-(2-chloro-3,4-difluoro-phenyl)-2-thiazol-2-yl-1,4-dihydro-pyrimidine-5-carboxylic acid methyl ester]	2.1	72000	> 655	34286	0.51	–
COC(=O)C1=C(CN2CCOC[C@]2(C)C(=O)O)NC(c2nccs2)=N[C@H]1c1ccc(F)c(F)c1Cl (single isomer, unassigned) [Example 79]	4.5	76000	> 660	16889	2.18	–
COC(=O)C1=C(CN2CCOC[C@H]2C(=O)O)NC(c2nccs2)=N[C@H]1c1ccc(Br)cc1F [Example 94, (S)-4-[(R)-6-(4-Bromo-2-fluoro-phenyl)-5-methoxycarbonyl-2-thiazol-2-yl-3,6-dihydro-pyrimidin-4-ylmethyl]-morpholine-3-carboxylic acid]	20	92000	> 677	4600	0.61	–
COC(=O)C1=C(CN2CCOC[C@H]2C(=O)O)NC(c2nc(C3CC3)cs2)=N[C@H]1c1ccc(F)cc1Cl [Example 87, (3S)-4-[[(4R)-4-(2-Chloro-4-fluoro-phenyl)-2-(4-cyclopropylthiazol-2-yl)-5-methoxycarbonyl-1,4-dihydropyrimidin-6-yl]methyl]morpholine-3-carboxylic acid]	22	100000	> 600	>4545	6.86	–
COC(=O)C1=C(CN2CC(F)(F)C[C@H]2C(=O)O)NC(c2cc(F)cs2)=N[C@H]1c1ccc(F)cc1Cl [Example 12, (R)-6-((S)-2-Carboxy-4,4-difluoro-pyrrolidin-1-ylmethyl)-4-(2-chloro-4-fluoro-phenyl)-2-(4-fluoro-thiophen-2-yl)-1,4-dihydro-pyrimidine-5-carboxylic acid methyl ester]	9.3	> 100000	488 (≈ 917 µM)	>10753	5.55	–
COC(=O)C1=C(CN2CC(F)(F)C[C@H]2C(=O)O)NC(c2nccn2C)=N[C@H]1c1ccc(F)cc1Cl [Example 32, (R)-6-((S)-2-Carboxy-4,4-difluoro-pyrrolidin-1-ylmethyl)-4-(2-chloro-4-fluoro-phenyl)-2-(1-methyl-1H-imidazol-2-yl)-1,4-dihydro-pyrimidine-5-carboxylic acid methyl ester]	13	40000	632 (≈ 1230 µM)	3125	5.04	–
COC(=O)C1=C(CN2CC(F)(F)C[C@H]2C(=O)O)NC(c2ncoc2C)=N[C@H]1c1ccc(F)cc1Cl [Example 102, (R)-6-((5)-2-Carboxy-4,4-difluoro-pyrrolidin-1-ylmethyl)-4-(2-chloro-4-fluoro-phenyl)-2-(5-methyl-oxazol-4-yl)-1,4-dihydro-pyrimidine-5-carboxylic acid methyl ester]	9	23000	> 635	2599	0.97	–
COC(=O)C1=C(CN2CCOC[C@H]2C(=O)O)NC(c2nc(SC)cs2)=N[C@H]1c1ccc(F)cc1Cl [Example 61, (3S)-4-[[(4R)-4-(2-Chloro-4-fluorophenyl)-5-methoxycarbonyl-2-(4-methylsulfanyl-1,3-thiazol-2-yl)-1,4-dihydropyrimidin-6-yl]methyl]morpholine-3-carboxylic acid]	18	56000	495 (≈ 915 µM)	3133	–	–
COC(=O)C1=C(CN2CCO[C@H](C)[C@H]2C(=O)O)NC(c2nccs2)=N[C@H]1c1ccccc1Br [Example 119, (2R,3S)-4-[(R)-6-(2-Bromo-phenyl)-5-methoxycarbonyl-2-thiazol-2-yl-3,6-dihydro-pyrimidin-4-ylmethyl]-2-methyl-morpholine-3-carboxylic acid]	3	> 100000	–	>33333	0.85	–
CCOC(=O)C1=C(CN2CCOC[C@H]2C(=O)O)NC(c2nccs2)=N[C@H]1c1ccccc1I [Example 129, (3S)-4-[[(4R)-5-Ethoxycarbonyl-4-(2-iodophenyl)-2-(1,3-thiazol-2-yl)-1,4-dihydropyrimidin-6-yl]methyl]morpholine-3 carboxylic acid]	7.6	> 100000	–	>13158	4.25	–
COC(=O)C1=C(CN2CC(F)(F)C[C@H]2C(=O)O)NC(c2nc(C(C)C)cs2)=N[C@H]1c1ccc(F)cc1Cl [Example 28, (R)-6-((S)-2-Carboxy-4,4-difluoro-pyrrolidin-1-ylmethyl)-4-(2-chloro-4-fluoro-phenyl)-2-(4-isopropyl-thiazol-2-yl)-1,4-dihydro-pyrimidine-5-carboxylic acid methyl ester]	4.4	31000	247 (≈ 443 µM)	7045	–	–
